Experimental data published in patent publication US20080009418A1, “Selective Inhibitors” (Alchemia LTD., priority 2004, published 2008).

Tests used:
[1] = molecular target: T1, Human melanocortin (MC5) (Homo sapiens, UniProt P33032); assay: Radioligand binding, human melanocortin MC5 membranes, FlashPlate, [125I]-NDP-αMSH; details: compound at 10 μM; for A5 radioligand binding inhibition: human melanocortin MC5 membranes
T1 construct: purchased Perkin Elmer Biosignal
Outline: (§1)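 Cloned human receptor membranes were coated onto FlashPlate wells and incubated with radioligand and compound (added from a 0.5 mM DMSO daughter plate) for 1 hour at room temperature in the dark. Scintillation counting gave percent inhibition, with DMSO defining total and reference ligand defining non-specific binding.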

[2] = molecular target: T2, Human κ-Opioid (KOP) (Homo sapiens, UniProt P41145); assay: Radioligand binding, human κ-opioid (KOP) membranes, filtration, [3H]-Diprenorphine; details: compound at 10 μM; for A2 radioligand binding inhibition: human κ-opioid (KOP) membranes
T2 construct: purchased Perkin Elmer Biosignal
Outline: (§2)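 Membranes from cloned human receptors were incubated with compound and radioligand for 1 hour at room temperature. Bound ligand was collected on 0.3% PEI-soaked filters, washed with cold 50 mM Tris-HCl pH 7.4, and counted by scintillation. Percent inhibition was computed against DMSO totals and reference-ligand nonspecific wells.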

[3] = molecular target: T3, Human Melanocortin (MC3) (Homo sapiens, UniProt P41968); assay: Radioligand binding, human melanocortin MC3 membranes, FlashPlate, [125I]-NDP-αMSH; details: compound at 10 μM; for A3 radioligand binding inhibition: human melanocortin MC3 membranes
T3 construct: purchased Perkin Elmer Biosignal
Outline: as §1

[4] = molecular target: T4, Human opioid (ORL1) (Homo sapiens, UniProt P41146); assay: Radioligand binding, human opioid ORL1 membranes, FlashPlate, [125I]-Nociceptin; details: compound at 10 μM
T4 construct: purchased Perkin Elmer Biosignal
Outline: as §1

[5] = molecular target: T5, Human neuropeptide Y (NPY-Y1) (Homo sapiens, UniProt P25929); assay: Radioligand binding, human neuropeptide Y NPY-Y1 membranes, FlashPlate, [125I]-PYY; details: compound at 10 μM
T5 construct: purchased Perkin Elmer Biosignal
T5 sequence (P25929 1-384): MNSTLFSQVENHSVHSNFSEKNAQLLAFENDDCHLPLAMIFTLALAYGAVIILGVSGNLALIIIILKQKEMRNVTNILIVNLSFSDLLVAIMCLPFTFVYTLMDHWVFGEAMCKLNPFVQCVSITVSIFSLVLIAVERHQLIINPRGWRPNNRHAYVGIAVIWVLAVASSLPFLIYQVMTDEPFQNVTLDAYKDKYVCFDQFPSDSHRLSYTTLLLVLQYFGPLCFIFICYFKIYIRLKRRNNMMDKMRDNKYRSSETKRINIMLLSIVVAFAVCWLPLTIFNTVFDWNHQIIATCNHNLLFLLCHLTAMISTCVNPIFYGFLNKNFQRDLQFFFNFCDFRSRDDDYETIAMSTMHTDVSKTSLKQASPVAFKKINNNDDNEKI
Outline: as §1

[6] = molecular target: T6, Human neurokinin (NK1) (Homo sapiens, UniProt P25103); assay: Radioligand binding, human neurokinin NK1 membranes, filtration, [125I]-Substance P; details: compound at 10 μM; for A8 radioligand binding inhibition: human neurokinin NK1 membranes
T6 construct: purchased Perkin Elmer Biosignal
Outline: as §2

[7] = molecular target: T7, Human δ-opioid (DOP) (Homo sapiens, UniProt P41143); assay: Radioligand binding, human δ-opioid (DOP) membranes, FlashPlate, [3H]-Bremazocine; details: compound at 10 μM; for A1 radioligand binding inhibition: human δ-opioid (DOP) membranes
T7 construct: purchased Perkin Elmer Biosignal
Outline: as §1

[8] = molecular target: T8, Human melanin-concentrating hormone (MCH1) (Homo sapiens, UniProt Q99705); assay: Radioligand binding, human melanin-concentrating hormone MCH1 membranes, FlashPlate, [125I]-S36057; details: compound at 10 μM; for A6: inhibition of radioligand binding, human melanin-concentrating hormone (MCH1): [125I]-S36057; for A6 radioligand binding inhibition: human MCH1 membranes
T8 construct: purchased Perkin Elmer Biosignal
Outline: as §1

[9] = molecular target: T9, Human Melanocortin (MC4) (Homo sapiens, UniProt P32245); assay: Radioligand binding, human melanocortin MC4 membranes, FlashPlate, [125I]-NDP-αMSH; details: compound at 10 μM; for A4 radioligand binding inhibition: human melanocortin MC4 membranes
T9 construct: purchased Perkin Elmer Biosignal
Outline: as §1

[10] = molecular target: T10, Mouse urotensin (mUR2) (Mus musculus, UniProt Q8VIH9); assay: Radioligand binding, mouse urotensin mUR2 membranes, FlashPlate, [125I]-Urotensin II; details: compound at 10 μM; for A11 radioligand binding inhibition: mouse urotensin mUR2 membranes
T10 construct: purchased Perkin Elmer Biosignal
T10 sequence (Q8VIH9 1-385): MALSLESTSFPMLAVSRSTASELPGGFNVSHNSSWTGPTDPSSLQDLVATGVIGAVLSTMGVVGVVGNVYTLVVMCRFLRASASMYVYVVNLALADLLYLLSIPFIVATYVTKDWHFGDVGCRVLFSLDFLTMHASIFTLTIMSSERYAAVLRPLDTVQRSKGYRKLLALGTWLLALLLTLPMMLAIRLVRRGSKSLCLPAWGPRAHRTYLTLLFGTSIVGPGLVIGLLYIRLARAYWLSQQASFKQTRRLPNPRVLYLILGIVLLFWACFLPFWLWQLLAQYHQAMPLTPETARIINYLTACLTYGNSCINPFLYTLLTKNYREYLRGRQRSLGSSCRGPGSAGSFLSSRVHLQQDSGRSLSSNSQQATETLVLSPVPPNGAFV
Outline: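 Cloned mouse urotensin (mUR2) receptor membranes from Perkin Elmer Biosignal were immobilized in FlashPlate microplates using a proprietary coating. Each well got 19.5 μl buffer, then 0.5 μl of DMSO, reference ligand, or compound. Adding 5 μl of [125I]-Urotensin II, diluted to 5× final concentration in binding buffer, started binding. Plates were sealed with TopSeal-A and incubated 1 hour at room temperature in the dark. Wells were counted for 30 seconds each on a TopCount after a 60-second delay, and percentage inhibition was calculated.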

[11] = molecular target: T11, Human μ-opioid (MOP) (Homo sapiens, UniProt P35372); assay: Radioligand binding, human μ-opioid (MOP) membranes, FlashPlate, [3H]-Naloxone; details: compound at 10 μM; for A7 radioligand binding inhibition: human μ-opioid (MOP) membranes
T11 construct: purchased Perkin Elmer Biosignal
Outline: as §1

T8 sequence (Q99705 whole entry): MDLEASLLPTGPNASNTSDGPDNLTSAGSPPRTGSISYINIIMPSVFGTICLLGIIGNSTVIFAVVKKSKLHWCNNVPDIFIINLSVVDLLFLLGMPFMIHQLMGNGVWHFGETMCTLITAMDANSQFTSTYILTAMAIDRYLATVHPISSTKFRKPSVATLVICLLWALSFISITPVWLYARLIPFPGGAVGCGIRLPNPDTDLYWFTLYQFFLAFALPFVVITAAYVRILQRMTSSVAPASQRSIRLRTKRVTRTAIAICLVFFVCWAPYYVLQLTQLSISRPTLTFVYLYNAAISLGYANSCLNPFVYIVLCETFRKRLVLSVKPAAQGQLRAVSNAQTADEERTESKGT
T3 sequence (P41968 whole entry): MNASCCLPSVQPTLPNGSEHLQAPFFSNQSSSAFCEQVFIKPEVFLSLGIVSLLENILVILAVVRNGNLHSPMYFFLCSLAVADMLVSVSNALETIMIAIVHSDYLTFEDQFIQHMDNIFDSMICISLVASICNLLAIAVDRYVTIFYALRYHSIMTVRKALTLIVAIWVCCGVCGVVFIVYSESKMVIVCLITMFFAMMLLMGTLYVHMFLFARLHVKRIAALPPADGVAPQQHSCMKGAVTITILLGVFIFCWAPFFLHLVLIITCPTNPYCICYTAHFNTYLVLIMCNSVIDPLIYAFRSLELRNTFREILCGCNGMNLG
T1 sequence (P33032 whole entry): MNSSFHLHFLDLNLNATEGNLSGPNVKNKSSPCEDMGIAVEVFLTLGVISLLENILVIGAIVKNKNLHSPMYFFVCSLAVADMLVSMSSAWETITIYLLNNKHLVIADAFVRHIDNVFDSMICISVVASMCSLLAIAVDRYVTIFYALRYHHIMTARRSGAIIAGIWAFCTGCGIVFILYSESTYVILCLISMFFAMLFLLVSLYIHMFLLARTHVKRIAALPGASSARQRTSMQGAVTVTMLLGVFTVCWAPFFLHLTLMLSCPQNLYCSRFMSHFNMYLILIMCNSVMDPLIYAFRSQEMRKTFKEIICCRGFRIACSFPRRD
T9 sequence (P32245 whole entry): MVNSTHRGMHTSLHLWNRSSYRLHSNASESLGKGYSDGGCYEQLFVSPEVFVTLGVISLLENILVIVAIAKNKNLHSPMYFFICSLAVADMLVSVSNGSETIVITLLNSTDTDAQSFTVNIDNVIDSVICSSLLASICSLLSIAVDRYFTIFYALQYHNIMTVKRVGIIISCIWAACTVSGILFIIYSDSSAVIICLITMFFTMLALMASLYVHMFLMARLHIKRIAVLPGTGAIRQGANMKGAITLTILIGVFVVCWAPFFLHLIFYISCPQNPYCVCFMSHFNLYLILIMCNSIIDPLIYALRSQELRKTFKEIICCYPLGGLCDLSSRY
T2 sequence (P41145 whole entry): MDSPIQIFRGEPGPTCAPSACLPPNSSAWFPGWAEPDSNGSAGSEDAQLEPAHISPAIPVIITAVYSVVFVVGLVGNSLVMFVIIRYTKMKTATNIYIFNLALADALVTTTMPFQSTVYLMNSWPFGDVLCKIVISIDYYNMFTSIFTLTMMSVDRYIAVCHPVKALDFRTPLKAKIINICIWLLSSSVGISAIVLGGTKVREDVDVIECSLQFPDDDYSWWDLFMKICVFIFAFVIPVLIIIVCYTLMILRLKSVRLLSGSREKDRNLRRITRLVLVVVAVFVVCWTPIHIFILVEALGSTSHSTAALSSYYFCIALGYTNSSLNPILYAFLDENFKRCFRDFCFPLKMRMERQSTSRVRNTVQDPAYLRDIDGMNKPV
T6 sequence (P25103 whole entry): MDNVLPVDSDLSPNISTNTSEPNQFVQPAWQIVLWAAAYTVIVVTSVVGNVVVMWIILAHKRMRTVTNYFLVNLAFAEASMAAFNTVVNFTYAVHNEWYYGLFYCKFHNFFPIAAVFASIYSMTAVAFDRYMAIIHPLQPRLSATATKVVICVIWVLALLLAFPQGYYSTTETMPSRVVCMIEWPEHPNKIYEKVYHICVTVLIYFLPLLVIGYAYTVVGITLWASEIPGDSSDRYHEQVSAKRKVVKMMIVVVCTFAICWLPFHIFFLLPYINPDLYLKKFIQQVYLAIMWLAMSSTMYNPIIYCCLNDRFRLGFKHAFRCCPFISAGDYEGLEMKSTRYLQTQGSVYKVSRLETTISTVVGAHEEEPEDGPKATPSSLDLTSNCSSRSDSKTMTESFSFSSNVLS
T7 sequence (P41143 whole entry): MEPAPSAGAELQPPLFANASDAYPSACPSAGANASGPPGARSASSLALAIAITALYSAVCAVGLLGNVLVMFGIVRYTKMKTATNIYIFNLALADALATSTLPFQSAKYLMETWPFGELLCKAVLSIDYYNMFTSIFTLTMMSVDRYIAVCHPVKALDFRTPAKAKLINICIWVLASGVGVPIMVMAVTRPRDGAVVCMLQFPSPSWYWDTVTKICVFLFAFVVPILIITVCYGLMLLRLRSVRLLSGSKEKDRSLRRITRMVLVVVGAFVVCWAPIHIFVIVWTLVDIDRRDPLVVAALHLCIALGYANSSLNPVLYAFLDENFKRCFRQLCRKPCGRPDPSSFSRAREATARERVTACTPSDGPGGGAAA
T11 sequence (P35372 whole entry): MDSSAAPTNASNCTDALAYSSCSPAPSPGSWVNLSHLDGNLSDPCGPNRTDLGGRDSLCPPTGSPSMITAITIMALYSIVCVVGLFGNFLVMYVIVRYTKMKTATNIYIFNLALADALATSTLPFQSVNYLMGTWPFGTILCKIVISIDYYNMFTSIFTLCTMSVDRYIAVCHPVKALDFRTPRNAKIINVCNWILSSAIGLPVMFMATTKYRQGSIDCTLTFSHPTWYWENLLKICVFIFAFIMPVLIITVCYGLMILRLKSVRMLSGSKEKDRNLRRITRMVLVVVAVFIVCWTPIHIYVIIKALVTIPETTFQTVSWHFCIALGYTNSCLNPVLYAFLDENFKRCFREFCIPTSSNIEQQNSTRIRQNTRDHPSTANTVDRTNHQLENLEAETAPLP
T4 sequence (P41146 whole entry): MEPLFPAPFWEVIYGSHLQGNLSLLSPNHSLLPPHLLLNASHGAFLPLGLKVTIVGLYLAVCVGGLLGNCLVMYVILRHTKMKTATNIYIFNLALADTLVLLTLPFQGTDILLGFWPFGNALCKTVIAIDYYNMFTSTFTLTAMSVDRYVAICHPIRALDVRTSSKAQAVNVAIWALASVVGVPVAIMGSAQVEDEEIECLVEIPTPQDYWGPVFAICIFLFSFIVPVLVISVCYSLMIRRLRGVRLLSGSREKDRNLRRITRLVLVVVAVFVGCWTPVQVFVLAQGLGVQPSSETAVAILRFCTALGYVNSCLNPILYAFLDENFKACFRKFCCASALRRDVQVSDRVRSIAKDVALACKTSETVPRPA

Row | Compound | A9: inhibition of radioligand binding, human neuropeptide Y (NPY-Y1) ([5]; [125I]-PYY) | A8: inhibition of radioligand binding, human neurokinin (NK1) ([6]; [125I]-Substance P) | A1: inhibition of radioligand binding, human δ-opioid (DOP) ([7]; [3H]-Bremazocine) | A5 radioligand binding inhibition [1] | A2 radioligand binding inhibition [2] | A3 radioligand binding inhibition [3] | A10 radioligand binding inhibition ([4]; human ORL1 membranes) | A9 radioligand binding inhibition ([5]; human NPY-Y1 membranes) | A8 radioligand binding inhibition [6] | A1 radioligand binding inhibition [7] | A6 radioligand binding inhibition [8] | A4 radioligand binding inhibition [9] | A11 radioligand binding inhibition [10] | A7 radioligand binding inhibition [11] | further results
1 | COC[C@H]1OC(OCCc2ccccc2)[C@H](NC(=O)CCCN)[C@@H](OCc2ccc3ccccc3c2)[C@@H]1O (single isomer, unassigned) [compound 346] | − (“−” indicates less than 50% inhibition at 10 μM) | + (“+” indicates greater than 50% inhibition at 10 μM) | − (“−” indicates less than 50% inhibition at 10 μM) | – | – | – | – | – | – | – | – | – | – | – | A5: inhibition of radioligand binding, human melanocortin (MC5) ([1]; [125I]-NDP-αMSH, 10 µM): + (“+” indicates greater than 50% inhibition at 10 μM); A2: inhibition of radioligand binding, human κ-opioid (KOP) ([2]; [3H]-Diprenorphine, 10 µM): + (“+” indicates greater than 50% inhibition at 10 μM); A3: inhibition of radioligand binding, human melanocortin (MC3) ([3]; [125I]-NDP-αMSH, 10 µM): + (“+” indicates greater than 50% inhibition at 10 μM); A10: inhibition of radioligand binding, human opioid (ORL1) ([4]; [125I]-Nociceptin, 10 µM): + (“+” indicates greater than 50% inhibition at 10 μM); A6: inhibition of radioligand binding, human melanin-concentrating hormone (MCH1) ([8]; 10 µM): + (“+” indicates greater than 50% inhibition at 10 μM); A4: inhibition of radioligand binding, human melanocortin (MC4) ([9]; [125I]-NDP-αMSH, 10 µM): + (“+” indicates greater than 50% inhibition at 10 μM); A11: inhibition of radioligand binding, mouse urotensin (mUR2) ([10]; [125I]-Urotensin II, 10 µM): + (“+” indicates greater than 50% inhibition at 10 μM); A7: inhibition of radioligand binding, human μ-opioid (MOP) ([11]; [3H]-Naloxone, 10 µM): + (“+” indicates greater than 50% inhibition at 10 μM)
2 | COC[C@H]1OC(OCc2ccc(-c3ccccc3)cc2)[C@H](NC(=O)CCCN)[C@@H](OCc2ccc(Cl)cc2)[C@@H]1O (stereo partly shown) [compound 12] | – | – | – | − (“−” indicates less than 50% inhibition at 10 μM) | − (“−” indicates less than 50% inhibition at 10 μM) | − (“−” indicates less than 50% inhibition at 10 μM) | − (“−” indicates less than 50% inhibition at 10 μM) | − (“−” indicates less than 50% inhibition at 10 μM) | + (“+” indicates greater than 50% inhibition at 10 μM) | − (“−” indicates less than 50% inhibition at 10 μM) | − (“−” indicates less than 50% inhibition at 10 μM) | − (“−” indicates less than 50% inhibition at 10 μM) | − (“−” indicates less than 50% inhibition at 10 μM) | − (“−” indicates less than 50% inhibition at 10 μM) | –
3 | NCCCC(=O)NC1C(OCc2ccc3ccccc3c2)OC(COCc2ccccc2)C(O)C1OCc1ccc2ccccc2c1 (stereo not shown) [compound 394] | – | – | – | – | – | – | – | – | – | – | – | – | – | – | A5: inhibition of radioligand binding ([1]; [125I]-NDP-αMSH, human MC5 membranes): + (“+” indicates greater than 50% inhibition at 10 μM); A2: inhibition of radioligand binding ([2]; [3H]-Diprenorphine, human KOP membranes): − (“−” indicates less than 50% inhibition at 10 μM); A3: inhibition of radioligand binding ([3]; [125I]-NDP-αMSH, human MC3 membranes, 10 µM): + (“+” indicates greater than 50% inhibition at 10 μM); A10: inhibition of radioligand binding ([4]; [125I]-Nociceptin, human ORL1 membranes, 10 µM): − (“−” indicates less than 50% inhibition at 10 μM); A9: inhibition of radioligand binding ([5]; [125I]-PYY, human NPY-Y1 membranes): − (“−” indicates less than 50% inhibition at 10 μM); A8: inhibition of radioligand binding ([6]; [125I]-Substance P, human NK1 membranes): + (“+” indicates greater than 50% inhibition at 10 μM); A1: inhibition of radioligand binding ([7]; [3H]-Bremazocine, human DOP membranes): − (“−” indicates less than 50% inhibition at 10 μM); A6: inhibition of radioligand binding ([8]; [125I]-S36057, human MCH1 membranes): − (“−” indicates less than 50% inhibition at 10 μM); A4: inhibition of radioligand binding ([9]; [125I]-NDP-αMSH, human MC4 membranes, 10 µM): + (“+” indicates greater than 50% inhibition at 10 μM); A11: inhibition of radioligand binding ([10]; [125I]-Urotensin II, mouse mUR2 membranes): − (“−” indicates less than 50% inhibition at 10 μM); A7: inhibition of radioligand binding ([11]; [3H]-Naloxone, human MOP membranes): − (“−” indicates less than 50% inhibition at 10 μM)
4 | CO[C@H]1[C@H](O)[C@@H](COCc2ccc(-c3ccccc3)cc2)OC(OCc2ccc3ccccc3c2)[C@@H]1NC(=O)CNC(=N)N (stereo partly shown) [compound 66] | – | – | – | + (“+” indicates greater than 50% inhibition at 10 μM) | − (“−” indicates less than 50% inhibition at 10 μM) | + (“+” indicates greater than 50% inhibition at 10 μM) | − (“−” indicates less than 50% inhibition at 10 μM) | − (“−” indicates less than 50% inhibition at 10 μM) | + (“+” indicates greater than 50% inhibition at 10 μM) | − (“−” indicates less than 50% inhibition at 10 μM) | + (“+” indicates greater than 50% inhibition at 10 μM) | + (“+” indicates greater than 50% inhibition at 10 μM) | − (“−” indicates less than 50% inhibition at 10 μM) | + (“+” indicates greater than 50% inhibition at 10 μM) | –
5 | N=C(N)NCC(=O)N[C@H]1C(OCc2ccc(Cl)cc2)O[C@H](COCc2ccccc2)[C@@H](O)[C@@H]1OCc1ccc2ccccc2c1 (stereo partly shown) [compound 514] | + (“+” indicates greater than 50% inhibition at 10 μM) | + (“+” indicates greater than 50% inhibition at 10 μM) | − (“−” indicates less than 50% inhibition at 10 μM) | – | – | – | – | – | – | – | – | – | – | – | A5: inhibition of radioligand binding, human melanocortin (MC5) ([1]; [125I]-NDP-αMSH): + (“+” indicates greater than 50% inhibition at 10 μM); A2: inhibition of radioligand binding, human κ-opioid (KOP) ([2]; [3H]-Diprenorphine): − (“−” indicates less than 50% inhibition at 10 μM); A3: inhibition of radioligand binding, human melanocortin (MC3) ([3]; [125I]-NDP-αMSH): + (“+” indicates greater than 50% inhibition at 10 μM); A10: inhibition of radioligand binding, human opioid (ORL1) ([4]; [125I]-Nociceptin): + (“+” indicates greater than 50% inhibition at 10 μM); A6: inhibition of radioligand binding, human melanin-concentrating hormone (MCH1) [8]: + (“+” indicates greater than 50% inhibition at 10 μM); A4: inhibition of radioligand binding, human melanocortin (MC4) ([9]; [125I]-NDP-αMSH): + (“+” indicates greater than 50% inhibition at 10 μM); A11: inhibition of radioligand binding, mouse urotensin (mUR2) ([10]; [125I]-Urotensin II): − (“−” indicates less than 50% inhibition at 10 μM); A7: inhibition of radioligand binding, human μ-opioid (MOP) ([11]; [3H]-Naloxone): − (“−” indicates less than 50% inhibition at 10 μM)
